One test addresses cGAS (Homo sapiens (Human), UniProt Q8N884). The test is described as follows: Human cGAS enzyme assay (hcGAS IC50, in vitro), cGAMP formation by RapidFire MS.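 Further: enzyme activated by 45 bp dsDNA with GTP and ATP (30 µM each), 60 min compound pre-incubation then 90 min reaction, cGAMP relative to cyclic-di-GMP internal standard, 8-point dilutions up to 10 µM.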 The test is classed as biochemical. Particulars: biochemical (in vitro) cGAS inhibition.
Test [1] has as its system cellular cGAS activity in dsDNA-stimulated human whole blood. In words: Human whole blood assay (hWB IC50): IFNα2α production after dsDNA transfection. Particulars: inhibition of IFN induction in dsDNA-stimulated human whole blood. The test is classed as cell-based. An outline of the steps: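 Citrated blood from healthy donors preincubated 60 min at room temperature with compound (top 10 µM, ~1:5 steps, 0.1% DMSO), then transfected with dsDNA/Fugene and incubated 22 h at 37 °C. Plasma IFNα2α measured by MSD immunoassay; IC50 from 4-parameter fit of % control (stimulated vs unstimulated).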

Test [2] has as its system cGAMP-stimulated THP1-Dual cells (pathway directly downstream of cGAS). In words: cGAMP stimulated counter cell assay: inhibition of IFN induction in cGAMP-stimulated THP1 cells (THP1(cGAMP) IC50). It is filed as cell-based, human. To be noted: for IC50: Homo sapiens, THP1-Dual, inhibition of IFN induction in cGAMP-stimulated THP1 cells, read-out: THP1(cGAMP) IC50 (converted); for Ratio THP1(cGAMP) IC50 / THP1(vir) IC50: selectivity for cGAS inhibition. In short, it runs like this: (§1)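 THP1-Dual cells with IRF-dependent Lucia luciferase reporter, stimulated by empty baculovirus (dsDNA delivery activating cGAS) or, for the counter assay, directly by cGAMP. 5000 cells/well, 8 concentrations from 10 μM top, 1% DMSO, 18 h at 37 °C; luminescence read, IC50 by 4-parameter logistic fit versus unstimulated low control.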

The subject of test [3] is cellular cGAS activity in baculovirus-stimulated THP1-Dual cells (IRF dependent Lucia luciferase reporter). In words: Human cGAS cell assay: inhibition of IFN induction in virus-stimulated THP1 cells (THP1(vir) IC50). The test is classed as cell-based. To be noted: Homo sapiens, THP1-Dual; inhibition of IFN induction in virus-stimulated THP1 cells; read-out: THP1(vir) IC50. In short, it runs like this:
as §1

Data on 20 molecules can be found in patent US20240342186A1, “PYRIDINE DERIVATIVES WITH N-LINKED CYCLIC SUBSTITUENTS AS cGAS INHIBITORS” (Boehringer Ingelheim International GmbH, priority 2021, published 2024).

Each structure is given as a SMILES string.

Sequence of cGAS (Q8N884 whole entry): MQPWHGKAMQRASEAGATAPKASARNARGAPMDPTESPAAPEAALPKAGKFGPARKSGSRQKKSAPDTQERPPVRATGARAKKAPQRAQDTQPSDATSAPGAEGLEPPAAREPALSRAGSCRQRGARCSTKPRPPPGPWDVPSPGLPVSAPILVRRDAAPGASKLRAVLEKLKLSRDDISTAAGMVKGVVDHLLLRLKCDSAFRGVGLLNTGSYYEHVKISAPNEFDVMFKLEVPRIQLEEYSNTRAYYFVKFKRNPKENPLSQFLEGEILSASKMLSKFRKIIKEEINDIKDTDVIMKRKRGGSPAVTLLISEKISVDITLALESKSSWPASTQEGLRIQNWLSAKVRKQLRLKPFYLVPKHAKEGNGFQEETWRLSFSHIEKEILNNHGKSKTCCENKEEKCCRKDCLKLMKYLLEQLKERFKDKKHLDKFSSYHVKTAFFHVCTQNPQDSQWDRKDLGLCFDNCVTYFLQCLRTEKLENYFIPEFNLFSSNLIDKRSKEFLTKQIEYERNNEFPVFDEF

As to `C#Cc1cnc(O[C@H]2C[C@@H](C(=O)O)N(c3nc(CF)nc4c3oc3ccccc34)C2)c(N2CCOC3(COC3)[C@@H]2C)c1` [Example 2.04], the IC50 was 1 nM against cGAS, 5 nM in test [1], 25400 nM in test [2] and 3 nM in test [3]. In addition, in test [2], the “Ratio THP1(cGAMP) IC50 / THP1(vir) IC50” value turned out to be 8125.

On to `CNc1cc(-c2cnc(O[C@H]3C[C@@H](C(=O)O)N(c4nc(C(F)F)nc5c4oc4ccccc45)C3)c(N3CCOC4(COC4)[C@@H]3C)c2)ccn1` [Example 3.08], for which the IC50 is 5 nM on cGAS, 3 nM in test [1], 4790 nM in test [2] and 4 nM in test [3]. Besides, in test [2], the “Ratio THP1(cGAMP) IC50 / THP1(vir) IC50” value was 1179.

For the molecule `C#Cc1cnc(O[C@H]2C[C@@H](C(=O)O)N(c3nc(C(F)(F)Cl)nc4c3oc3ccccc34)C2)c(N2CCOC3(COC3)[C@@H]2C)c1` [Example 1.16], the IC50 at cGAS is 3 nM; in test [1] it was 23 nM; in test [2], 15000 nM; in test [3] it was 7 nM. Also, the “Ratio THP1(cGAMP) IC50 / THP1(vir) IC50” value in test [2] stood at 2209.

In the case of `CNc1cccc(-c2cnc(O[C@H]3C[C@@H](C(=O)O)N(c4nc(C(F)(F)F)nc5c4oc4ccccc45)C3)c(N3CCOC4(COC4)[C@@H]3C)c2)n1` [Example 7.03], the IC50 on cGAS is 21 nM; in test [1], 27 nM; in test [2], more than 10000 nM; in test [3], 2 nM. Besides, in test [2], the “Ratio THP1(cGAMP) IC50 / THP1(vir) IC50” value is 4151.

Take `CC#Cc1cnc(O[C@H]2C[C@@H](C(=O)O)N(c3nc(C(F)(F)F)nc4c3oc3ccccc34)C2)c(N2CCOC3(COC3)[C@@H]2C)c1` [Example 6.01]: the IC50 against cGAS was 10 nM; in test [1], 25 nM; in test [2], 20500 nM; in test [3], less than 5 nM. Besides, the “Ratio THP1(cGAMP) IC50 / THP1(vir) IC50” value in test [2] is 3801.

With `C#Cc1cnc(O[C@H]2C[C@@H](C(=O)O)N(c3nc(C(F)(F)F)nc4c3oc3ccccc34)C2)c(N2CCOCC2)c1` [Example 2.02], the IC50 against cGAS is 7 nM; in test [1] it was 1030 nM; in test [2], more than 16600 nM; in test [3], 752 nM. The “Ratio THP1(cGAMP) IC50 / THP1(vir) IC50” value in test [2] is given as more than 22.

Turning to `CNc1cccc(-c2cnc(O[C@H]3C[C@@H](C(=O)O)N(c4nc(C(F)(F)F)nc5c4oc4ccccc45)C3)c(N3CCOC4(COC4)[C@@H]3C)c2)c1` [Example 3.12], the IC50 is 9 nM on cGAS, 19 nM in test [1], 11100 nM in test [2] and 6 nM in test [3]. In test [2], the “Ratio THP1(cGAMP) IC50 / THP1(vir) IC50” value is given as 1930.

In the case of `C#Cc1cnc(O[C@H]2C[C@@H](C(=O)O)N(c3nc(Cl)nc4c3oc3ccccc34)C2)c(N2CCOC3(COC3)[C@@H]2C)c1` [Example 2.05], the IC50 was 2 nM against cGAS, 8 nM in test [1], 10800 nM in test [2] and 4 nM in test [3]. The “Ratio THP1(cGAMP) IC50 / THP1(vir) IC50” value in test [2] is 3018.

As to `CC(=O)Nc1cc(-c2cnc(O[C@H]3C[C@@H](C(=O)O)N(c4nc(C(F)F)nc5c4oc4ccccc45)C3)c(N3CCOC4(COC4)[C@@H]3C)c2)ccn1` [Example 3.15], the IC50 against cGAS was 10 nM; in test [1], 22 nM; in test [2] it was 19900 nM; in test [3] it was 57 nM. Also, the “Ratio THP1(cGAMP) IC50 / THP1(vir) IC50” value in test [2] is given as 348.

Take `C[C@@H]1N(c2cc(-c3ccnc([S+](C)[O-])c3)cnc2O[C@H]2C[C@@H](C(=O)O)N(c3nc(C(F)F)nc4c3oc3ccccc34)C2)CCOC12COC2` (stereo partly drawn) [Example 5.01, (2S,4S)-1-[4-(Difluoromethyl)-8-oxa-3,5-diazatricyclo[7.4.0.0^2,7]trideca-1(9),2(7),3,5,10,12-hexaen-6-yl]-4-({2′-methanesulfinyl-5-[(95)-9-methyl-2,5-dioxa-8-azaspiro[3.5]nonan-8-yl]-[3,4′-bipyridin]-6-yl}oxy)pyrrolidine-2-carboxylic acid]: the IC50 against cGAS was 5 nM; in test [1], 239 nM; in test [2], 22100 nM; in test [3], 579 nM. In addition, the “Ratio THP1(cGAMP) IC50 / THP1(vir) IC50” value in test [2] is on record as 38.

Take `CNc1cc(-c2cnc(O[C@H]3C[C@@H](C(=O)O)N(c4nc(C(F)(F)F)nc5c4oc4ccccc45)C3)c(N3CCOC4(COC4)[C@@H]3C)c2)ccn1` [Example 3.09]: the IC50 is 9 nM at cGAS, 8 nM in test [1], 4820 nM in test [2] and 8 nM in test [3]. Moreover, the “Ratio THP1(cGAMP) IC50 / THP1(vir) IC50” value in test [2] is 585.

As for `CNc1cc(-c2cnc(O[C@H]3C[C@@H](C(=O)O)N(c4nc(C(F)(F)F)nc5c4oc4ccccc45)C3)c(N3CCOC[C@@H]3C)c2)ccn1` [Example 3.02], the IC50 is 13 nM against cGAS, 1540 nM in test [1], 4920 nM in test [2] and 306 nM in test [3]. The “Ratio THP1(cGAMP) IC50 / THP1(vir) IC50” value in test [2] is 16.

For `C[C@H]1COCCN1c1cc(-c2ccncc2)cnc1O[C@H]1C[C@@H](C(=O)O)N(c2nc(C(F)(F)F)nc3c2oc2ccccc23)C1` [Example 3.01, (2S,4S)-4-({5-[(3S)-3-methylmorpholin-4-yl]-[3,4′-bipyridin]-6-yl}oxy)-1-[4-(trifluoromethyl)-8-oxa-3,5-diazatricyclo[7.4.0.0^2,7]trideca-1(9),2(7),3,5,10,12-hexaen-6-yl]pyrrolidine-2-carboxylic acid], the IC50 is 9 nM at cGAS, 1610 nM in test [1], more than 16600 nM in test [2] and 982 nM in test [3]. Moreover, the “Ratio THP1(cGAMP) IC50 / THP1(vir) IC50” value in test [2] is more than 17.

Regarding `C#Cc1cnc(O[C@H]2C[C@@H](C(=O)O)N(c3nc(C(F)F)nc4c3oc3ccccc34)C2)c(N2CCC3(C[C@@H]2C)N=N3)c1` [Example 1.20], the IC50 is 2 nM against cGAS, 670 nM in test [1], more than 16600 nM in test [2] and 796 nM in test [3]. Further, the “Ratio THP1(cGAMP) IC50 / THP1(vir) IC50” value in test [2] is more than 21.

For the molecule `C#Cc1cnc(O[C@H]2C[C@@H](C(=O)O)N(c3nc(CCl)nc4c3oc3ccccc34)C2)c(N2CCOC3(COC3)[C@@H]2C)c1` [Example 2.10], the IC50 at cGAS is 3 nM; in test [1], 24 nM; in test [2], 2750 nM; in test [3], 5 nM. For the same molecule, the “Ratio THP1(cGAMP) IC50 / THP1(vir) IC50” value in test [2] was found to be 533.

In the case of `C[C@@H]1N(c2cc(-c3cn(C)nn3)cnc2O[C@H]2C[C@@H](C(=O)O)N(c3nc(C(F)(F)F)nc4c3oc3ccccc34)C2)CCOC12COC2` [Example 8.01, (2S,4S)-4-{[5-(1-methyl-1H-1,2,3-triazol-4-yl)-3-[(95)-9-methyl-2,5-dioxa-8-azaspiro[3.5]nonan-8-yl]pyridin-2-yl]oxy}-1-[4-(trifluoromethyl)-8-oxa-3,5-diazatricyclo[7.4.0.0^2,7]trideca-1(9),2(7),3,5,10,12-hexaen-6-yl]pyrrolidine-2-carboxylic acid], the IC50 at cGAS was 5 nM; in test [1], 21 nM; in test [2] it was 14900 nM; in test [3], 11 nM. In addition, in test [2], the “Ratio THP1(cGAMP) IC50 / THP1(vir) IC50” value is 1366.

For `C[C@@H]1N(c2cc(F)cnc2O[C@H]2C[C@@H](C(=O)O)N(c3nc(C(F)(F)F)nc4c3oc3ccccc34)C2)CCOC12COC2` [Example 1.34], the IC50 is 3 nM on cGAS, 51 nM in test [1], more than 10000 nM in test [2] and 19 nM in test [3]. Moreover, in test [2], the “Ratio THP1(cGAMP) IC50 / THP1(vir) IC50” value amounted to 514.

`C#Cc1cnc(O[C@H]2C[C@@H](C(=O)O)N(c3nc(C(F)F)nc4c3oc3ccccc34)C2)c(N2CCOCC2)c1` [Example 2.01, (2S,4S)-1-[4-(Difluoromethyl)-8-oxa-3,5-diazatricyclo[7.4.0.0^2,7]trideca-1(13),2,4,6,9,11-hexzen-6-yl]-4-{[5-ethynyl-3-(morpholin-4-yl)pyridin-2yl]oxy}-pyrrolidine-2-carboxylic acid]: the IC50 at cGAS is 8 nM; in test [1] it was 506 nM; in test [2], more than 16600 nM; in test [3] it was 858 nM. Further, in test [2], the “Ratio THP1(cGAMP) IC50 / THP1(vir) IC50” value is given as more than 19.

Take `C[C@H]1COCCN1c1cc(-c2ccnc(C(F)F)c2)cnc1O[C@H]1C[C@@H](C(=O)O)N(c2nc(C(F)(F)F)nc3c2oc2ccccc23)C1` [Example 3.04]: the IC50 on cGAS is 12 nM; in test [1] it was 2420 nM; in test [2], 7780 nM; in test [3], 757 nM. The “Ratio THP1(cGAMP) IC50 / THP1(vir) IC50” value in test [2] was found to be 10.

Turning to `C[C@H]1COCCN1c1cc(-c2cnn(C)c2)cnc1O[C@H]1C[C@@H](C(=O)O)N(c2nc(C(F)(F)F)nc3c2oc2ccccc23)C1` [Example 3.06], the IC50 was 9 nM against cGAS, 1990 nM in test [1], 21400 nM in test [2] and 525 nM in test [3]. For the same molecule, the “Ratio THP1(cGAMP) IC50 / THP1(vir) IC50” value in test [2] was found to be 41.

As a reminder, the IC50 is the concentration needed to halve the response being measured.
